Where no end group is shown, it is not given here.
Experiments:
S. mutans UA159 = experiment: Killing kinetics (time-kill assay); format: cell-based, Streptococcus mutans; details: peptide 25 μg/ml; for TC, time required to kill 3 log10 of recoverable CFU/ml: UA159
Description: The determination of killing kinetics for fusion and parental peptides was conducted essentially as described previously (Eckert et al. (2006) Antimicrob. Agents Chemother. 50: 1480-1488). Briefly, medium-diluted overnight UA159 cultures (0.5×10^6 to 1×10^6 CFU/ml) were challenged with peptide at a concentration of 25 μg/ml, and at the indicated time intervals (“0 min” indicates untreated samples), a 10-μL aliquot was removed and the surviving CFU were rescued by dilution (1:50) into growth medium and then spread on TH agar plates for quantitation. […] Kinetics were determined by recording the average number of surviving CFU/ml versus incubation time in the presence of peptide (all assays were independently repeated three to five times). For Table 8, time to bactericidal killing (TC) values were defined as the time required for the level of surviving CFU/ml from peptide-treated cultures to fall 3 log10 below the levels of recovered S. mutans CFU/ml from untreated samples.

[1] = system: clinical isolates of S. mutans; format: cell-based, Streptococcus mutans; details: for MIC (fusion library peptides) / MIC: clinical isolates of
Description: (§1) S. mutans clinical isolates UA140 (32), UA159 (1), T8 (33), ATCC 25175, GS5 (Kuramitsu and Ingersoll (1977) Infect Immun., 17: 330-337), and all gram-positive strains listed below (see Table 9) were grown under anaerobic conditions in brain heart infusion or Todd-Hewitt (TH) broth (Difco) overnight at 37° C. prior to use (Eckert et al. (2006) Antimicrob. Agents Chemother. 50: 3651-3657). Veillonella atypica PK1910 was grown in Veillonella medium (Egland et al. (2004) Proc. Natl. Acad. Sci., USA, 101: 16917-16922). All strains were grown in an anaerobic atmosphere of 80% N2, 10% CO2, and 10% H2.
(§2) Antibacterial growth inhibition assays were performed using sterile 96-well plates in a final volume of 100 μl, TH or Veillonella medium as described previously (Qi et al. (2005) FEMS Microbial Lett. 251: 321-326). Briefly, bacterial cells were grown overnight to an optical density at 600 nm of 0.75 to 0.8 (corresponding to 1×10^8 CFU/ml) and then diluted to 1×10^5 CFU/ml in broth and aliquoted onto plates. An appropriate volume of peptide stock solution (5 to 20 mg/ml, in water or methanol, depending on solubility) was then added to the first column of the plate to give 500 μg/ml or 512 μg/ml, followed by serial 1:2 dilutions across the plate to give wells containing peptides ranging from 500 to 1.95 μg/ml or 512 to 2 μg/ml. Methanol alone was also added to control for the effects of the solvent. The plates were then incubated at 37° C. under anaerobic conditions for 16 to 20 h without shaking, and the MIC was determined as the concentration of peptide present in the last clear well after visual inspection. Up to 5% (vol/vol) methanol was found not to be antimicrobial (data not shown). MICs were determined in triplicate for all bacteria.

S. gordonii Challis DL1 = format: cell-based, Streptococcus gordonii
Description: as §1, §2

V. atypica PK1910 = format: cell-based, Veillonella atypica
Description: as §1, §2

L. casei ATCC 4646 = format: cell-based, Lactobacillus casei
Description: as §1, §2

S. mitis ATCC 903 = format: cell-based, Streptococcus mitis
Description: as §1, §2

S. sanguinis NY101 = format: cell-based, Streptococcus sanguinis
Description: as §1, §2

Substance | TC, time required to kill 3 log10 of recoverable CFU/ml (S. mutans UA159) [min] | MIC (fusion library peptides) [1] [µg/mL] | MIC S. gordonii Challis DL1 (S. gordonii Challis DL1) [µg/mL] | MIC V. atypica PK1910 (V. atypica PK1910) [µg/mL] | MIC L. casei ATCC 4646 (L. casei ATCC 4646) [µg/mL] | MIC S. mitis ATCC 903 (S. mitis ATCC 903) [µg/mL] | MIC S. sanguinis NY101 (S. sanguinis NY101) [µg/mL] | also measured
RWRWRWFPSGSPRWRWRWF-NH2 [FRW-10, RWRWRWF-PSGSP-RWRWRWF*] | 270 | 32 | – | – | – | – | – | –
FHYFWHWFHRF [AA-6, FHYFWHWFHRF] | – | – | – | – | – | – | – | MIC pH 4.9 (S. mutans): >50 μM; MIC pH 7.4 (S. mutans): 125 μM
RWRWRWFASASARWRWRWF-NH2 [FRW-9, RWRWRWF-ASASA-RWRWRWF*] | 45 | 16 | – | – | – | – | – | –
RWRWRWFGGGRWRWRWF-NH2 [FRW-11, RWRWRWF-GGG-RWRWRWF*] | 90 | 16 | – | – | – | – | – | –
FHFFHHFFHFFHHFKLLK [AA-5, FHFFHHFFHFFHHFKLLK] | – | – | – | – | – | – | – | MIC pH 4.9 (S. mutans): 28.125 μM; MIC pH 7.4 (S. mutans): >125 μM
HHFFHHFHHFFHHF-NH2 [AA-1, HHFFHHFHHFFHHF*] | – | – | – | – | – | – | – | MIC pH 4.9 (S. mutans): 12.5 μM; MIC pH 7.4 (S. mutans): >125 μM
LYHFLHWFQRF [AA-7, LYHFLHWFQRF] | – | – | – | – | – | – | – | MIC pH 4.9 (S. mutans): >50 μM; MIC pH 7.4 (S. mutans): 125 μM
IKQLLHFFQRF-NH2 [Peptide B-38, IKQLLHFFQRF*] | – | – | 32 | 64 | 32 | 64 | 64 | activity against S. mutans by MIC, in words [1]: active but to a lesser degree than B-33 or B-34; MIC [1]: 24 µg/mL
RRRWWWF-NH2 [Peptide 2C-3, RRRWWWF*] | 220 | – | 32 | 64 | 16 | 32 | 16 | MIC [1]: 4 to 8 µg/mL
FKKFWKWFRRF-NH2 [Peptide B-33, FKKFWKWFRRF*] | – | – | 32 | 16 | 32 | 32 | 32 | MIC [1]: 8 to 24 µg/mL
RWRWRWFGGGFKKFWKWFRRF-NH2 [FBRW-22, RWRWRWF-GGG-FKKFWKWFRRF*] | – | 4 to 8 | 16 | 8 | 8 | 64 | 8 | –
RRRWWWFASASARRRWWWF-NH2 [FRW-3, RRRWWWF-ASASA-RRRWWWF*] | 480 | 32 | – | – | – | – | – | –
LKRFLKWFKRF-NH2 [Peptide B-34, LKRFLKWFKRF*] | – | – | 32 | 32 | 16 | 64 | 16 | MIC [1]: 8 to 24 µg/mL
KLLKGATFHFFHHFFHFFHHF [AA-3] | – | – | – | – | – | – | – | MIC pH 4.9 (S. mutans): 6.25 μM; MIC pH 7.4 (S. mutans): >125 μM
RRRWWWFGGGRRRWWWF-NH2 [FRW-5, RRRWWWF-GGG-RRRWWWF*] | 270 | 16 | – | – | – | – | – | –
IKQLLHFFQRFGGGRWRWRWF-NH2 [FBRW-15, IKQLLHFFQRF-GGG-RWRWRWF*] | – | 4 to 16 | 32 | 8 | 16 | 64 | 16 | –
RRRWWWFPSGSPRRRWWWF-NH2 [FRW-4, RRRWWWF-PSGSP-RRRWWWF*] | 420 | 32 | – | – | – | – | – | –
RWRWRWFGGGLKRFLKWFKRF-NH2 [FBRW-24, RWRWRWF-GGG-LKRFLKWFKRF*] | – | 8 | 32 | 16 | 8 | 64 | 16 | –
LKRFLKWFKRFGGGRWRWRWF-NH2 [FBRW-16, LKRFLKWFKRF-GGG-RWRWRWF*] | – | 4 to 16 | 64 | 8 | 16 | 64 | 16 | –
RWRRLLKKLHHLLH-NH2 [α-11, RWRRLLKKLHHLLH*] | – | – | 16 | 4 | 16 | 32 | 16 | MIC [1]: 8 µg/mL
RWRRLLKKLHHLLHGGGIKQLLHFFQRF-NH2 [FBα-21, RWRRLLKKLHHLLH-GGG-IKQLLHFFQRF*] | – | 16 | – | – | – | – | – | fewer CFU/ml recovered from fusion peptide-treated cultures than from parental peptide-treated samples (S. mutans UA159; after 30 min): more than 2 log10
RWRWRWFRWRWRWF-NH2 [FRW-8, RWRWRWFRWRWRWF*] | 50 | 16 | – | – | – | – | – | –
